Reference: ChEMBL document CHEMBL4308841, “Synthesis, in vitro antiproliferative activity, and kinase inhibitory effects of pyrazole-containing diarylureas and diarylamides” (Eur J Med Chem, 2018)

Key:
CCRF-CEM = experiment: Growth inhibition of human CCRF-CEM cells assessed as cell growth at 0.1 uM incubated for 48 hrs by sulforhodamine B assay relative to control; type: functional; conditions: read-out: Activity
SNB-75 [1] = experiment: Growth inhibition of human SNB75 cells assessed as cell growth at 0.01 uM incubated for 48 hrs by sulforhodamine B assay relative to control; type: functional; conditions: SNB-75, 48 h, read-out: Activity
RXF 393 = experiment: Growth inhibition of human RXF393 cells assessed as cell growth at 100 uM incubated for 48 hrs by sulforhodamine B assay relative to control; type: functional; conditions: RXF 393, 48 h, read-out: Activity
UACC-257 = experiment: Growth inhibition of human UACC257 cells assessed as cell growth at 0.01 uM incubated for 48 hrs by sulforhodamine B assay relative to control; type: functional; conditions: UACC-257, 48 h, read-out: Activity
COLO 205 = experiment: Growth inhibition of human COLO205 cells assessed as cell growth at 100 uM incubated for 48 hrs by sulforhodamine B assay relative to control; type: functional; conditions: COLO 205, 48 h, read-out: Activity
786-0 = experiment: Growth inhibition of human 786-0 cells assessed as cell growth at 1 uM incubated for 48 hrs by sulforhodamine B assay relative to control; type: functional; conditions: 786-0, 48 h, read-out: Activity
HL-60(TB) = experiment: Growth inhibition of human HL-60(TB) cells incubated for 48 hrs by sulforhodamine B assay; type: functional, cell-based; conditions: HL-60, 48 h
HCT-15 = experiment: Growth inhibition of human HCT15 cells assessed as cell growth at 0.01 uM incubated for 48 hrs by sulforhodamine B assay relative to control; type: functional; conditions: HCT-15, 48 h, read-out: Activity
IGROV-1 = experiment: Growth inhibition of human IGROV1 cells incubated for 48 hrs by sulforhodamine B assay; type: functional, cell-based; conditions: IGROV-1, 48 h
HCC 2998 = experiment: Growth inhibition of human HCC2998 cells assessed as cell growth at 0.1 uM incubated for 48 hrs by sulforhodamine B assay relative to control; type: functional; conditions: HCC 2998, 48 h, read-out: Activity
NCI-H23 [2] = experiment: Growth inhibition of human NCI-H23 cells assessed as cell growth at 100 uM incubated for 48 hrs by sulforhodamine B assay relative to control; type: functional; conditions: NCI-H23, 48 h, read-out: Activity
T47D = experiment: Growth inhibition of human T47D cells assessed as cell growth at 100 uM incubated for 48 hrs by sulforhodamine B assay relative to control; type: functional; conditions: read-out: Activity
A549 = experiment: Growth inhibition of human A549/ATCC cells assessed as cell growth at 0.01 uM incubated for 48 hrs by sulforhodamine B assay relative to control; type: functional; conditions: A549, 48 h, read-out: Activity
SR [3] = experiment: Growth inhibition of human SR cells assessed as cell growth at 1 uM incubated for 48 hrs by sulforhodamine B assay relative to control; type: functional; conditions: read-out: Activity
NCI-H23 [4] = experiment: Growth inhibition of human NCI-H23 cells assessed as cell growth at 0.01 uM incubated for 48 hrs by sulforhodamine B assay relative to control; type: functional; conditions: NCI-H23, 48 h, read-out: Activity
MDA-MB-468 = experiment: Growth inhibition of human MDA-MB-468 cells assessed as cell growth at 0.1 uM incubated for 48 hrs by sulforhodamine B assay relative to control; type: functional; conditions: MDA-MB-468, 48 h, read-out: Activity
SNB-75 [5] = experiment: Growth inhibition of human SNB75 cells incubated for 48 hrs by sulforhodamine B assay; type: functional, cell-based; conditions: SNB-75, 48 h
CAKI-1 [6] = experiment: Growth inhibition of human Caki1 cells assessed as cell growth at 100 uM incubated for 48 hrs by sulforhodamine B assay relative to control; type: functional; conditions: CAKI-1, 48 h, read-out: Activity
SR [7] = experiment: Growth inhibition of human SR cells assessed as cell growth at 0.1 uM incubated for 48 hrs by sulforhodamine B assay relative to control; type: functional; conditions: read-out: Activity
SNB-19 = experiment: Growth inhibition of human SNB19 cells assessed as cell growth at 1 uM incubated for 48 hrs by sulforhodamine B assay relative to control; type: functional; conditions: SNB-19, 48 h, read-out: Activity
CAKI-1 [8] = experiment: Growth inhibition of human Caki1 cells assessed as cell growth at 0.01 uM incubated for 48 hrs by sulforhodamine B assay relative to control; type: functional; conditions: CAKI-1, 48 h, read-out: Activity
SK-MEL-28 = experiment: Growth inhibition of human SK-MEL-28 cells assessed as cell growth at 0.1 uM incubated for 48 hrs by sulforhodamine B assay relative to control; type: functional; conditions: SK-MEL-28, 48 h, read-out: Activity
UO-31 = experiment: Growth inhibition of human UO31 cells assessed as cell growth at 1 uM incubated for 48 hrs by sulforhodamine B assay relative to control; type: functional; conditions: UO-31, 48 h, read-out: Activity
MCF7 = experiment: Growth inhibition of human MCF7 cells incubated for 48 hrs by sulforhodamine B assay; type: functional, cell-based; conditions: MCF7, 48 h
NCI-H322M [9] = experiment: Growth inhibition of human NCI-H322M cells assessed as cell growth at 0.01 uM incubated for 48 hrs by sulforhodamine B assay relative to control; type: functional; conditions: read-out: Activity
MDA-MB-231 = experiment: Growth inhibition of human MDA-MB-231 cells assessed as cell growth at 0.01 uM incubated for 48 hrs by sulforhodamine B assay relative to control; type: functional; conditions: MDA-MB-231, 48 h, read-out: Activity
NCI-H322M [10] = experiment: Growth inhibition of human NCI-H322M cells assessed as cell growth at 0.1 uM incubated for 48 hrs by sulforhodamine B assay relative to control; type: functional; conditions: read-out: Activity
SF-295 = experiment: Growth inhibition of human SF295 cells assessed as cell growth at 0.01 uM incubated for 48 hrs by sulforhodamine B assay relative to control; type: functional; conditions: SF-295, 48 h, read-out: Activity
SW-620 = experiment: Growth inhibition of human SW620 cells incubated for 48 hrs by sulforhodamine B assay; type: functional, cell-based; conditions: SW-620, 48 h
SK-OV-3 = experiment: Growth inhibition of human SKOV3 cells assessed as cell growth at 0.01 uM incubated for 48 hrs by sulforhodamine B assay relative to control; type: functional; conditions: SK-OV-3, 48 h, read-out: Activity
[11] = read-out: LC50 (the source's name)
[12] = read-out: pLC50 (the source's name) (converted)

COc1cc(Cl)cc(-c2nn(-c3cccc(NC(=O)Nc4ccc(Cl)c(C(F)(F)F)c4)c3)cc2-c2ccncc2)c1
growth at 0.1 µM (CCRF-CEM): 97% | growth at 0.01 µM (SNB-75 [1]): 57% | growth at 100 µM (RXF 393): -58% | growth at 0.01 µM (UACC-257): 91% | growth at 100 µM (COLO 205): -79% | growth at 1 µM (786-0): 74% | GI50 (HL-60(TB); read-out: GI50): 1.55 µM | LC50 (HL-60(TB); read-out: LC50): > 100 µM | TGI (HL-60(TB); read-out: TGI): 55.3 µM | GI50 (HL-60(TB); read-out: pGI50 (converted)): 1.66 µM | LC50 (HL-60(TB); read-out: pLC50 (converted)): > 100 µM | TGI (HL-60(TB); read-out: pTGI (converted)): 5.5 µM | growth at 0.01 µM (HCT-15): 92% | GI50 (IGROV-1; read-out: GI50): 3.2 µM | CC50 (IGROV-1; [11]): > 100 µM | TGI (IGROV-1; read-out: TGI): 29.1 µM | GI50 (IGROV-1; read-out: pGI50 (converted)): 3.24 µM | CC50 (IGROV-1; [12]): > 100 µM | TGI (IGROV-1; read-out: pTGI (converted)): 3.55 µM | growth at 0.1 µM (HCC 2998): 94% | growth at 100 µM (NCI-H23 [2]): -50% | growth at 100 µM (T47D): -18% | growth at 0.01 µM (A549): 97% | growth at 1 µM (SR [3]): 53% | growth at 0.01 µM (NCI-H23 [4]): 90% | growth at 0.1 µM (MDA-MB-468): 91% | GI50 (SNB-75 [5]; read-out: GI50): 1.77 µM | CC50 (SNB-75 [5]; [11]): > 100 µM | TGI (SNB-75 [5]; read-out: TGI): 11.1 µM | GI50 (SNB-75 [5]; read-out: pGI50 (converted)): 1.78 µM | CC50 (SNB-75 [5]; [12]): > 100 µM | TGI (SNB-75 [5]; read-out: pTGI (converted)): 11.2 µM | growth at 100 µM (CAKI-1 [6]): -40% | growth at 0.1 µM (SR [7]): 92% | growth at 1 µM (SNB-19): 87% | growth at 0.01 µM (CAKI-1 [8]): 98% | growth at 0.1 µM (SK-MEL-28): 106% | growth at 1 µM (UO-31): 64% | GI50 (MCF7; read-out: GI50): 1.01 µM | LC50 (MCF7; read-out: LC50): > 100 µM | TGI (MCF7; read-out: TGI): 11 µM | GI50 (MCF7; read-out: pGI50 (converted)): 1.02 µM | LC50 (MCF7; read-out: pLC50 (converted)): > 100 µM | TGI (MCF7; read-out: pTGI (converted)): 11 µM | growth at 0.01 µM (NCI-H322M [9]): 96% | growth at 0.01 µM (MDA-MB-231): 93% | growth at 0.1 µM (NCI-H322M [10]): 98% | growth at 0.01 µM (SF-295): 59% | GI50 (SW-620; read-out: GI50): 1.51 µM | LC50 (SW-620; read-out: LC50): 5.78 µM | TGI (SW-620; read-out: TGI): 10.5 µM | GI50 (SW-620; read-out: pGI50 (converted)): 1.62 µM | LC50 (SW-620; read-out: pLC50 (converted)): 57.5 µM | TGI (SW-620; read-out: pTGI (converted)): 10.5 µM | growth at 0.01 µM (SK-OV-3): 104%
